Results taken from the CombiSolv-Exp solvation set (Vermeire and Green 2021).

Experiment: solvent given as SMILES

Oc1ccc(-c2ccccc2)cc1
Details	solvation free energy, 298 K [kcal/mol]
in CC(C)CC(C)(C)C	-9.58
in CCCCOCCCC	-12.8
in O	-8.89

O=C1OC(C(O)CO)C(O)=C1O (stereo unspecified)
Details	solvation free energy, 298 K [kcal/mol]
in CCCO	-17.2
in CCO	-17.7

Nc1ccccc1[N+](=O)[O-]
Details	solvation free energy, 298 K [kcal/mol]
in CC(C)CC(C)(C)C	-7.5
in CCCCCC	-7.51
in O	-7.43

O=CO
Details	solvation free energy, 298 K [kcal/mol]
in C=CCCCCCCC=C	-2.89
in C=CCCCCCCCCCCCCCC	-2.47

Cc1cccnc1
Details	solvation free energy, 298 K [kcal/mol]
in CC(C)(C)O	-5.83
in CC(C)CC(C)(C)C	-4.97
in CCCCO	-6.41
in CCCO	-6.34
in O	-4.8

CCCCCCCCCCCCCCCCCCCCCCCCCCC
Details	solvation free energy, 298 K [kcal/mol]
in CC(=O)N(C)C	-18.4
in CN(C)C=O	-18.5
in O	5.74

CC1=CC(=O)CC(C)(C)C1
Details	solvation free energy, 298 K [kcal/mol]
in O	-5.18

CCCC(=O)CC(C)=O
Details	solvation free energy, 298 K [kcal/mol]
in O	-4.39

FC(F)F
Details	solvation free energy, 298 K [kcal/mol]
in CCCCCCCC(=O)OCC(COC(=O)CCCCCCC)OC(=O)CCCCCCC	-0.46
in CCCCCCCCC	0.06
in CCCCCCCCO	-0.21
in CN1CCCC1=O	-1.35
in CN(C)C=O	-0.86
in O	0.7

CCCCCN(CCCCC)N=O
Details	solvation free energy, 298 K [kcal/mol]
in CC(C)CC(C)(C)C	-9.29

CCC
Details	solvation free energy, 298 K [kcal/mol]
in Brc1ccccc1	-1.43
in C1CCC2CCCCC2C1	-1.52
in C1COCCO1	-1.24
in CC1COC(=O)O1	-0.58
in CC(=O)N(C)C	-1.09
in CC(C)(C)O	-1.39
in CC(C)=O	-1.36
in CC(C)CCO	-1.33
in CC(C)CO	-1.32
in CC(C)O	-1.21
in CC(CC(C)(C)C)CC(C)(C)CC(C)(C)C	-2.21
in CCC(C)(C)O	-1.42
in CCC(C)CO	-1.32
in CCC(O)CC	-1.34
in CCCC(C)O	-1.34
in CCCCC	-1.81
in CCCCCC	-1.8
in CCCCCCC	-1.77
in CCCCCCCC	-1.74
in CCCCCCCCC	-1.71
in CCCCCCCCCC	-1.67
in CCCCCCCCCCCC	-1.54
in CCCCCCCCCCCCC	-1.54
in CCCCCCCCCCCCCC	-1.49
in CCCCCCCCCCCCCCC	-1.48
in CCCCCCCCCCCCCCCC	-1.42
in CCCCCCCCO	-1.28
in CCCCCCCO	-1.22
in CCCCCO	-1.32
in CCCCO	-1.35
in CCCO	-1.32
in CCO	-1.24
in CN1CCCC1=O	-0.89
in CN(C)C=O	-0.88
in CN(C)P(=O)(N(C)C)N(C)C	-1.15
in CO	-1.15
in COCCOCCO	-0.77
in COCCOCCOC	-1.24
in COCCOCCOCCOC	-0.95
in COCCOCCOCCOCCOC	-0.98
in CS(C)=O	-0.36
in Cc1ccc(C)cc1	-1.56
in Cc1cccc(C)c1	-1.62
in Cc1ccccc1C	-1.52
in ClC(Cl)(Cl)Cl	-1.83
in Clc1ccccc1	-1.61
in Ic1ccccc1	-1.51
in N#Cc1ccccc1	-1.11
in NC=O	0.19
in Nc1ccccc1	-0.79
in O	1.96
in OC1CCCCC1	-1.1
in OCCCOCCCO	-0.57
in OCc1ccccc1	-0.84
in c1ccccc1	-1.61

ClC=C(Cl)Cl
Details	solvation free energy, 298 K [kcal/mol]
in C1COCCO1	-4.91
in CC(=O)N(C)C	-4.8
in CCCCCCCCC=CCCCCCCCC(=O)OCC(COC(=O)CCCCCCCC=CCCCCCCCC)OC(=O)CCCCCCCC=CCCCCCCCC	-4.37
in CCCCCCCCCC	-3.84
in CCCCCCCCO	-4.09
in CCCCN(C=O)CCCC	-4.62
in CNC(C)=O	-4.35
in O	-0.46

Nc1ccccc1
Details	solvation free energy, 298 K [kcal/mol]
in CC(C)=O	-7.84
in CC(C)CC(C)(C)C	-5.2
in CCCCCC	-5.43
in CCCCCCC	-5.38
in CCCCCCCC	-4.84
in CCCCCCCCCCCCCCCC	-5.36
in CCCCCl	-6.67
in CCOC(C)=O	-7.49
in O	-5.77

CCCCCCCCCCC
Details	solvation free energy, 298 K [kcal/mol]
in CCCCCC	-7.56
in CN(C)C=O	-5.57
in COCCO	-5.15

CCCC(=O)c1c(C)[nH]n(-c2ccccc2)c1=O
Details	solvation free energy, 298 K [kcal/mol]
in O	-9.51

CCC1CCCCC1
Details	solvation free energy, 298 K [kcal/mol]
in Brc1ccccc1	-5.2
in C1CCCCC1	-5.59
in C1CCOC1	-5.38
in C1COCCO1	-4.67
in C=CCCCC	-5.39
in C=CCCCCCC	-5.34
in C=CCCCCCCCC	-5.3
in CC1COC(=O)O1	-3.41
in CC#N	-3.87
in CC(=O)N(C)C	-4.21
in CC(=O)O	-4.16
in CC(=O)c1ccccc1	-4.54
in CC(C)=O	-4.54
in CC(C)CC(C)(C)C	-5.28
in CC(C)CCCC(C)CCCC(C)CCCCC(C)CCCC(C)CCCC(C)C	-4.99
in CC(C)CCO	-4.74
in CC(C)O	-4.53
in CC(C)OC(C)C	-5.26
in CCBr	-5.53
in CCC#N	-4.51
in CCC(C)=O	-4.81
in CCCC#N	-4.46
in CCCC(=O)OCC	-5.04
in CCCC(C)=O	-4.91
in CCCCC	-5.41
in CCCCCC	-5.42
in CCCCCC(C)=O	-4.96
in CCCCCCC	-5.39
in CCCCCCCC	-5.38
in CCCCCCCCC	-5.31
in CCCCCCCCC=CCCCCCCCC(=O)OCC(COC(=O)CCCCCCCC=CCCCCCCCC)OC(=O)CCCCCCCC=CCCCCCCCC	-5.07
in CCCCCCCCCC	-5.28
in CCCCCCCCCCCC	-5.21
in CCCCCCCCCCCCCCCC	-5.15
in CCCCCCCCO	-4.84
in CCCCCCOC(C)=O	-5.05
in CCCCO	-4.69
in CCCCOC(=O)c1ccccc1C(=O)OCCCC	-4.8
in CCCCOC(C)=O	-4.99
in CCCCOCCCC	-5.24
in CCCO	-4.55
in CCN(CC)CC	-5.43
in CCO	-4.47
in CCOC(=O)c1ccccc1C(=O)OCC	-4.24
in CCOC(C)=O	-4.83
in CCOCC	-5.33
in CCOCCOCCOCC	-4.82
in CCOc1ccccc1	-4.96
in CN1CCCC1=O	-4.2
in CN(C)C=O	-4.06
in CN(C)P(=O)(N(C)C)N(C)C	-4.49
in CNC=O	-3.73
in CO	-4.05
in COC(C)=O	-4.62
in COCCO	-4.06
in COc1ccccc1	-4.91
in CS(C)=O	-3.28
in Cc1ccc(C)cc1	-5.35
in Cc1ccccc1	-5.37
in Cc1ccccn1	-5
in ClC(Cl)(Cl)Cl	-5.58
in ClC(Cl)Cl	-5.46
in ClCCCl	-4.91
in ClCCl	-5.2
in Clc1ccccc1	-5.37
in FC(F)(F)C(F)(F)C(F)(F)C(F)(F)C(F)(F)C(F)(F)C(F)(F)C(F)(F)F	-3.5
in FC(F)(F)C(F)(F)C(F)(F)C(F)(F)C(F)(F)C(F)(F)F	-3.53
in Fc1ccccc1	-5.22
in ICI	-3.85
in N#Cc1ccccc1	-4.57
in NC=O	-1.81
in Nc1ccccc1	-3.93
in O	2.14
in O=C1CCCCC1	-4.85
in O=C1CCCO1	-3.62
in O=CN1CCOCC1	-3.52
in O=Cc1ccco1	-3.95
in OCCCCCO	-3.47
in OCCCCO	-3.26
in OCCCO	-2.9
in OCCO	-2.11
in OCCOCCO	-2.81
in OCCOCCOCCO	-3.01
in OCc1ccccc1	-4.14
in S=C=S	-5.65
in c1ccccc1	-5.35
in c1ccncc1	-4.73

C=C(c1ccccc1)c1ccccc1
Details	solvation free energy, 298 K [kcal/mol]
in O	-2.78

C=C1CCC2CC3C(C)CCC13C2(C)C (stereo unspecified)
Details	solvation free energy, 298 K [kcal/mol]
in O	0.83

C=C(C)CCCC
Details	solvation free energy, 298 K [kcal/mol]
in C=CCCCCCCCCCCCCCC	-4.04
in O	1.66

C=CC1CC=CCC1 (stereo unspecified)
Details	solvation free energy, 298 K [kcal/mol]
in CCCCCCCCCCCCCCCC	-4.94
in COCCO	-4.42
in CS(C)=O	-3.97
in O	0.36

CCCCCCO[N+](=O)[O-]
Details	solvation free energy, 298 K [kcal/mol]
in O	-1.66

Cc1ccc(N(O)C(=O)c2ccccc2C)cc1
Details	solvation free energy, 298 K [kcal/mol]
in O	-11.5

Nc1ccc(O)c2c1C(=O)c1ccccc1C2=O
Details	solvation free energy, 298 K [kcal/mol]
in O	-9.53

COC(=O)c1ccccc1O
Details	solvation free energy, 298 K [kcal/mol]
in Cc1ccc(C)cc1	-7.64

Oc1ccc(Cl)c(Cl)c1
Details	solvation free energy, 298 K [kcal/mol]
in O	-7.29

BrC(Br)Br
Details	solvation free energy, 298 K [kcal/mol]
in O	-1.96

CC(C)=CCCC(C)CCOC=O (stereo unspecified)
Details	solvation free energy, 298 K [kcal/mol]
in O	-3.08

CC(C(=O)O)c1ccc(C(=O)c2cccs2)cc1 (stereo unspecified)
Details	solvation free energy, 298 K [kcal/mol]
in O	-13.9
